Source: patent publication US8952042B2, “FXR (NR1H4) binding and activity modulating compounds” (Phenex Pharmaceuticals AG, priority 2009, dated 2015)

Columns and labels:
[1] = test system: BSEP and SHP gene expression; assay: FXR target gene induction in mouse liver (qRT-PCR), high fat diet mice; format: in vivo, C57/bI6 mice; details: HFD mice, estimated 30 mg/kg daily in food, normalized to TBP
Protocol: C57/bI6 mice (Elevage Janvier, France) at the age of 8 weeks were put on a high fat diet (60% kcal from fat, Sniff, Soest, Germany, Cat. No. E15771-30 (Mod. Surwit)+0.5 cholesterol (Sigma-Aldrich, Germany) added) for 4 weeks. Baseline blood samples were taken after overnight starvation and fasting plasma glucose was determined using a Roche Accucheck device. In parallel L1-heparin plasma was generated for the determination of baseline total triglyceride (TG) and total cholesterol (TC) levels. Animals were maintained on the HFD+0.5% cholesterol diet for 8 weeks and weekly blood samples were taken for the monitoring of plasma TG and TC levels using routine enzymatic analysis kits (WAKO Diagnostics, Neuss, Germany). The test compounds were dissolved in 100% palm fat and then mixed into molten food for an estimated daily uptake of 30 mg/kg based on averaged food consumption in the 4 weeks HFD adaptation period. FIGS. 4 and 5 show the development of TG and TC values.
RNA was isolated using RNAzol RT Reagent (Fermentas) and mRNA levels determined by quantitative reverse-transcription polymerase chain reaction (qRT-PCR) using Absolute QPCR Rox Mix (Invitrogen) and a real-time PCR machine from Applied Biosystems (CA). Primer and probe sequences (5′ to 3′) used were: SHP, Fwd […]; Rev […]; probe 56-FAM/[…] and BSEP, Fwd […]; Rev […]; probe 56-FAM/ATGGCT […]. All samples were run in duplicate. […]

[2] = UV stability, irradiation at 366 nm on a DMSO thin film, LCMS; format: physicochemical; details: 366 nm emission, 250 μM in DMSO thin film, FIG. 3m
Protocol: A different, more rapid experimental setup was used to investigate a broader set of compounds in comparison to GW4064. The substances were dissolved in reagent grade DMSO (99.5%, Karl Roth) at a concentration of 250 μM. DMSO solution was spread over a silica glass slide to a depth of approximately 2 mm and irradiated using a UV lamp set to 366 nm emission (Benda Instruments, Wiesloch Germany) using an 8 W tube set approximately 2.5 cm from the target materials. The solution was sampled prior to irradiation (T=0 min) and at various intervals thereafter. Stocks and samples were maintained in foil wrapped tubes out of direct light. Samples were injected (2 μL) directly onto a LCMS System for analysis without any further preparation.

O=C(O)c1ccc(C2CC2c2ccc(OCc3c(-c4c(Cl)cccc4Cl)noc3C3CC3)cc2Cl)cc1 (racemic) [Example 12, 4-(2-(2-chloro-4-((5-cyclopropyl-3-(2,6-dichlorophenyl)isoxazol-4-yl)methoxy)phenyl)cyclopropyl)benzoic acid]
gene expression of BSEP in liver [1]: 6 fold | gene expression of SHP in liver [1]: 6 fold | photostability compared to GW4064 [2]: higher photostability
